Results reported in ChEMBL document CHEMBL1681717, “Design and synthesis of a novel, orally active, brain penetrant, tri-substituted thiophene based JNK inhibitor” (Bioorg Med Chem Lett, 2011).

Tests used:
[1] = target: T1, Mitogen-activated protein kinase 10 (Homo sapiens, UniProt P53779); assay: Inhibition of recombinant JNK3 after 60 mins by TR-FRET assay
[2] = target: Mitogen-activated protein kinase 9 (Homo sapiens, UniProt P45984); assay: Inhibition of recombinant JNK2 after 60 mins by TR-FRET assay
[3] = target: Mitogen-activated protein kinase 8 (Homo sapiens, UniProt P45983); assay: Inhibition of recombinant JNK1 after 60 mins by TR-FRET assay
[4] = target: Mitogen-activated protein kinase 14 (Homo sapiens, UniProt Q16539); assay: Inhibition of recombinant p38alpha after 60 mins by TR-FRET assay
[5] = target: T2, Mitogen-activated protein kinase 1 (Homo sapiens, UniProt P28482); assay: Inhibition of recombinant ERK2 after 60 mins by TR-FRET assay
T2 sequence (P28482 whole entry): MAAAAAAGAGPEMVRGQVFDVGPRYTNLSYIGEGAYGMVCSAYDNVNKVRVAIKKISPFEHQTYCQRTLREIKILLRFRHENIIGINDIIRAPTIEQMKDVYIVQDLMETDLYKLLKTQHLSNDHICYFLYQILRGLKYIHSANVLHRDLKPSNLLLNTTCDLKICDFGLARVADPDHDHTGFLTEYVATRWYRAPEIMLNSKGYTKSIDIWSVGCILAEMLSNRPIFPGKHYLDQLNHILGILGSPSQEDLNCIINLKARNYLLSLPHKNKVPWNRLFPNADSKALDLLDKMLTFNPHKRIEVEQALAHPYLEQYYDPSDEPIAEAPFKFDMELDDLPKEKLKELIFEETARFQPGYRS

MDR1 [6] = assay: Apparent permeability of the compound from apical to basolateral direction in MDCK2 cells expressing MDR1; format: ADME, cell-based, Canis lupus familiaris, MDCK-II; conditions: dog, MDCK-MDR1
MDR1 [7] = assay: Efflux ratio of permeability from basolateral to apical side over apical to basolateral side in MDCK2 cells expressing MDR1; format: ADME, cell-based, Canis lupus familiaris, MDCK-II; conditions: dog, MDCK-MDR1
[8] = Oxidative metabolic stability in mouse liver microsomes assessed as compound remaining at 5 uM after 120 mins; format: ADME, Microsome; conditions: read-out: Stability
[9] = Oxidative metabolic stability in human liver microsomes assessed as compound remaining at 5 uM after 120 mins; format: ADME, Microsome; conditions: read-out: Stability
Mus musculus = assay: Inhibition of kainic acid-induced JNK activation in FVB mouse hippocampus assessed as reduction of phosphorylated c-jun level at 300 mg/kg, po administered 1 hr before kainic acid challenge measured after 4 hrs; format: functional
[10] = target: Cyclin-dependent kinase 5/CDK5 activator 1 (Homo sapiens) (UniProt Q00535+Q15078); assay: Inhibition of CDK5/p25 at 10 uM; format: protein-complex assay
[11] = target: Cyclin-dependent kinase 2/cyclin A (Homo sapiens) (UniProt P24941+P20248+P78396); assay: Inhibition of CDK2/cyclin A at 10 uM; format: protein-complex assay
[12] = target: Cyclin-dependent kinase 1/cyclin B (Homo sapiens) (UniProt P06493+P14635+Q8WWL7+O95067); assay: Inhibition of CDK1/cyclin B at 10 uM; format: protein-complex assay
[13] = target: Calcium/calmodulin-dependent protein kinase type II subunit alpha (Homo sapiens) (UniProt Q9UQM7); assay: Inhibition of CAMK2A at 10 uM
[14] = target: Aurora kinase A (Homo sapiens) (UniProt O14965); assay: Inhibition of Aurora A at 10 uM
Sequence of Aurora kinase A (Homo sapiens) (O14965 whole entry): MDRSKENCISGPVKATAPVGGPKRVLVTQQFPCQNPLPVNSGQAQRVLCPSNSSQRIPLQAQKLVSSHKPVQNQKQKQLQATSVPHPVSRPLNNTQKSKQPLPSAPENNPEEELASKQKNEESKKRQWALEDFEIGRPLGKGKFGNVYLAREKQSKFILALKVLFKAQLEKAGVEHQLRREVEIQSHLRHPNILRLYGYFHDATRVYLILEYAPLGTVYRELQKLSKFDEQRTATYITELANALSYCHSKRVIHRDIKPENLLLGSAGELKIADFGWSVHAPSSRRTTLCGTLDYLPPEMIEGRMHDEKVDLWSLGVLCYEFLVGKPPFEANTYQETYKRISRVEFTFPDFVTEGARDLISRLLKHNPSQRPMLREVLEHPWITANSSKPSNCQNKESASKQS

[15] = target: RAC-alpha serine/threonine-protein kinase (Homo sapiens) (UniProt P31749); assay: Inhibition of AKT1 at 10 uM
Sequence of RAC-alpha serine/threonine-protein kinase (Homo sapiens) (P31749 whole entry): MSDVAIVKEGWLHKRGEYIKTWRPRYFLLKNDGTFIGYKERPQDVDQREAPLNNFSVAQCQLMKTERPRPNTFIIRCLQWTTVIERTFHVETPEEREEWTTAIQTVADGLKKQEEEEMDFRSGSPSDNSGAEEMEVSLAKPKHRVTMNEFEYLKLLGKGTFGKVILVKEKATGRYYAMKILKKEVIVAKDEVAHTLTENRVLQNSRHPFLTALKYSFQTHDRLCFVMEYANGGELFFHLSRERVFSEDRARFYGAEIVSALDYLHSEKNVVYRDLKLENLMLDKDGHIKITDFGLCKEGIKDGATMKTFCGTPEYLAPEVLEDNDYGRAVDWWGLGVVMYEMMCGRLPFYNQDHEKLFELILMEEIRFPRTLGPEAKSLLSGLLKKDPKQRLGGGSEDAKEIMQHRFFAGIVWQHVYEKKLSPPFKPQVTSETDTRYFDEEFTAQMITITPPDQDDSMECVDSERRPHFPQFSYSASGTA

[16] = target: Tyrosine-protein kinase ABL1 (Homo sapiens) (UniProt P00519); assay: Inhibition of ABL1 at 10 uM
[17] = target: Serine/threonine-protein kinase Chk1 (Homo sapiens) (UniProt O14757); assay: Inhibition of CHEK1 at 10 uM
Sequence of Serine/threonine-protein kinase Chk1 (Homo sapiens) (O14757 whole entry): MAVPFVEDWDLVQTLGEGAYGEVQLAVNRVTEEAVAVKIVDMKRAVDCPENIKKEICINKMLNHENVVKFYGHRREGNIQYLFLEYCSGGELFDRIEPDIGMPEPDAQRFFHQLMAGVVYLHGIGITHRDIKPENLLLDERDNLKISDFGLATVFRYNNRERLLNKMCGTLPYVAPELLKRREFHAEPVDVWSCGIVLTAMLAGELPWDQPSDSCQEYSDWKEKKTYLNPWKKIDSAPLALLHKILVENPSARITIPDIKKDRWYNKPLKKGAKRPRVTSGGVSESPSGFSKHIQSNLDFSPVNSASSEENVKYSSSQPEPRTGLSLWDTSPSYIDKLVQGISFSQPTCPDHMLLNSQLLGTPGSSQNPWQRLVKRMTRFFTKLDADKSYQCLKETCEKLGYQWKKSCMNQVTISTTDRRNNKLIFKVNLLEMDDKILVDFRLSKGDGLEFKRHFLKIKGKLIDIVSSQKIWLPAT

[18] = target: Dual specificity protein kinase CLK1 (Homo sapiens) (UniProt P49759); assay: Inhibition of CLK1 at 10 uM
[19] = target: Macrophage colony-stimulating factor 1 receptor (Homo sapiens) (UniProt P07333); assay: Inhibition of CSF1R at 10 uM
[20] = target: Dual specificity tyrosine-phosphorylation-regulated kinase 1B (Homo sapiens) (UniProt Q9Y463); assay: Inhibition of DYRK1B at 10 uM
Sequence of Dual specificity tyrosine-phosphorylation-regulated kinase 1B (Homo sapiens) (Q9Y463 whole entry, looked up): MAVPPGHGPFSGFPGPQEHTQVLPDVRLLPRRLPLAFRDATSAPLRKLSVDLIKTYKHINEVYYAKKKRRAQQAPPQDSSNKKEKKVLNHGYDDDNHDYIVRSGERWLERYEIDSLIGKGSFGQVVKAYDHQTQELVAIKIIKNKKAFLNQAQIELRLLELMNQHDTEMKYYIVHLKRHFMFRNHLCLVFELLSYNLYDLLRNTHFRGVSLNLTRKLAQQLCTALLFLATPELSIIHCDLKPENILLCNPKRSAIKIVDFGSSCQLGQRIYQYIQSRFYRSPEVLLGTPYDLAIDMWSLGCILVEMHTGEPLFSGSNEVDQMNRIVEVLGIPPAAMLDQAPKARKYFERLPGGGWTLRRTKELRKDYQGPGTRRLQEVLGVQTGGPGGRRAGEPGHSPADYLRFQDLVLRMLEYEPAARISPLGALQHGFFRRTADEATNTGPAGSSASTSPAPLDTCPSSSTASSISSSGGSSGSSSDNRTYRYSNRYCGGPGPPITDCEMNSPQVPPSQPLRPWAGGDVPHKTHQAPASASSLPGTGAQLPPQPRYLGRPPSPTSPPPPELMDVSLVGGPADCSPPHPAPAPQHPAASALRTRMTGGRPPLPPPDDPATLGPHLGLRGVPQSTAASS

[21] = target: Receptor tyrosine-protein kinase erbB-4 (Homo sapiens) (UniProt Q15303); assay: Inhibition of ERBB4 at 10 uM
[22] = target: Receptor-type tyrosine-protein kinase FLT3 (Homo sapiens) (UniProt P36888); assay: Inhibition of FLT3 at 10 uM
[23] = target: Glycogen synthase kinase-3 beta (Homo sapiens) (UniProt P49841); assay: Inhibition of GSK3B at 10 uM
[24] = target: Insulin receptor (Homo sapiens) (UniProt P06213); assay: Inhibition of INSR at 10 uM
[25] = target: Tyrosine-protein kinase JAK1 (Homo sapiens) (UniProt P23458); assay: Inhibition of JAK1 at 10 uM
[26] = target: Tyrosine-protein kinase Lck (Homo sapiens) (UniProt P06239); assay: Inhibition of LCK at 10 uM
[27] = target: Leucine-rich repeat serine/threonine-protein kinase 2 (Homo sapiens) (UniProt Q5S007); assay: Inhibition of LRRK2 at 10 uM
[28] = target: T2, Mitogen-activated protein kinase 1; assay: Inhibition of MAPK1 at 10 uM
[29] = target: Serine/threonine-protein kinase MARK2 (Homo sapiens) (UniProt Q7KZI7); assay: Inhibition of MARK2 at 10 uM
[30] = target: Serine/threonine-protein kinase PAK 4 (Homo sapiens) (UniProt O96013); assay: Inhibition of PAK4 at 10 uM
[31] = target: Platelet-derived growth factor receptor alpha (Homo sapiens) (UniProt P16234); assay: Inhibition of PDGFRA at 10 uM
[32] = target: PI3-kinase p110-alpha/p85-alpha (Homo sapiens) (UniProt P27986+P42336); assay: Inhibition of PIK3CA/PIK3R1 at 10 uM; format: protein-complex assay
[33] = target: Serine/threonine-protein kinase PLK1 (Homo sapiens) (UniProt P53350); assay: Inhibition of PLK1 at 10 uM
[34] = target: Serine/threonine-protein kinase PLK2 (Homo sapiens) (UniProt Q9NYY3); assay: Inhibition of PLK2 at 10 uM
Sequence of Serine/threonine-protein kinase PLK2 (Homo sapiens) (Q9NYY3 whole entry, looked up): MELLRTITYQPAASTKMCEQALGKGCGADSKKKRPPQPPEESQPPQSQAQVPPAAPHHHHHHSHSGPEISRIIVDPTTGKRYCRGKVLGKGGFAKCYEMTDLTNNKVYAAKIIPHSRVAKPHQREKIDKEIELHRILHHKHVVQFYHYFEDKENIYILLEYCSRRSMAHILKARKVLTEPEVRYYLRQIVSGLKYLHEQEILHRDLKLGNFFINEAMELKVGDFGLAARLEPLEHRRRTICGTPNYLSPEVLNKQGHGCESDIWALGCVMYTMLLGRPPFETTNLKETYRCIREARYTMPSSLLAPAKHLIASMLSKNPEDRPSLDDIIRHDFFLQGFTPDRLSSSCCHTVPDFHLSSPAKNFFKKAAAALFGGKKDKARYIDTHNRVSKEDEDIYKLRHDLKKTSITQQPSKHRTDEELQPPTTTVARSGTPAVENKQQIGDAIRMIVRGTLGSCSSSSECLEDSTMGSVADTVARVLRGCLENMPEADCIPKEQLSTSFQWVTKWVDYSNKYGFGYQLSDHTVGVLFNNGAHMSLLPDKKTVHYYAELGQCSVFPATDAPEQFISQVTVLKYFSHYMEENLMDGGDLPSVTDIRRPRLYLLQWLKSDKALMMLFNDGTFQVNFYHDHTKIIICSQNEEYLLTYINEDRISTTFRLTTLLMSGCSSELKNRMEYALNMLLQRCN

[35] = target: Serine/threonine-protein kinase PLK3 (Homo sapiens) (UniProt Q9H4B4); assay: Inhibition of PLK3 at 10 uM
[36] = target: cAMP-dependent protein kinase catalytic subunit alpha (Homo sapiens) (UniProt P17612); assay: Inhibition of PRKACA at 10 uM
[37] = target: Protein kinase C beta type (Homo sapiens) (UniProt P05771); assay: Inhibition of PRKCB1 at 10 uM
[38] = target: Protein-tyrosine kinase 2-beta (Homo sapiens) (UniProt Q14289); assay: Inhibition of PTK2B at 10 uM
[39] = system: RAF proto-oncogene serine/threonine-protein kinase (Homo sapiens), P04049 [Y340D,Y341D]; assay: Inhibition of RAF1 Y340D, Y341D mutant at 10 uM
[40] = target: Proto-oncogene tyrosine-protein kinase receptor Ret (Homo sapiens) (UniProt P07949); assay: Inhibition of RET at 10 uM
[41] = target: Receptor-interacting serine/threonine-protein kinase 2 (Homo sapiens) (UniProt O43353); assay: Inhibition of RIPK2 at 10 uM
[42] = target: Rho-associated protein kinase 2 (Homo sapiens) (UniProt O75116); assay: Inhibition of ROCK2 at 10 uM
Sequence of Rho-associated protein kinase 2 (Homo sapiens) (O75116 whole entry, looked up): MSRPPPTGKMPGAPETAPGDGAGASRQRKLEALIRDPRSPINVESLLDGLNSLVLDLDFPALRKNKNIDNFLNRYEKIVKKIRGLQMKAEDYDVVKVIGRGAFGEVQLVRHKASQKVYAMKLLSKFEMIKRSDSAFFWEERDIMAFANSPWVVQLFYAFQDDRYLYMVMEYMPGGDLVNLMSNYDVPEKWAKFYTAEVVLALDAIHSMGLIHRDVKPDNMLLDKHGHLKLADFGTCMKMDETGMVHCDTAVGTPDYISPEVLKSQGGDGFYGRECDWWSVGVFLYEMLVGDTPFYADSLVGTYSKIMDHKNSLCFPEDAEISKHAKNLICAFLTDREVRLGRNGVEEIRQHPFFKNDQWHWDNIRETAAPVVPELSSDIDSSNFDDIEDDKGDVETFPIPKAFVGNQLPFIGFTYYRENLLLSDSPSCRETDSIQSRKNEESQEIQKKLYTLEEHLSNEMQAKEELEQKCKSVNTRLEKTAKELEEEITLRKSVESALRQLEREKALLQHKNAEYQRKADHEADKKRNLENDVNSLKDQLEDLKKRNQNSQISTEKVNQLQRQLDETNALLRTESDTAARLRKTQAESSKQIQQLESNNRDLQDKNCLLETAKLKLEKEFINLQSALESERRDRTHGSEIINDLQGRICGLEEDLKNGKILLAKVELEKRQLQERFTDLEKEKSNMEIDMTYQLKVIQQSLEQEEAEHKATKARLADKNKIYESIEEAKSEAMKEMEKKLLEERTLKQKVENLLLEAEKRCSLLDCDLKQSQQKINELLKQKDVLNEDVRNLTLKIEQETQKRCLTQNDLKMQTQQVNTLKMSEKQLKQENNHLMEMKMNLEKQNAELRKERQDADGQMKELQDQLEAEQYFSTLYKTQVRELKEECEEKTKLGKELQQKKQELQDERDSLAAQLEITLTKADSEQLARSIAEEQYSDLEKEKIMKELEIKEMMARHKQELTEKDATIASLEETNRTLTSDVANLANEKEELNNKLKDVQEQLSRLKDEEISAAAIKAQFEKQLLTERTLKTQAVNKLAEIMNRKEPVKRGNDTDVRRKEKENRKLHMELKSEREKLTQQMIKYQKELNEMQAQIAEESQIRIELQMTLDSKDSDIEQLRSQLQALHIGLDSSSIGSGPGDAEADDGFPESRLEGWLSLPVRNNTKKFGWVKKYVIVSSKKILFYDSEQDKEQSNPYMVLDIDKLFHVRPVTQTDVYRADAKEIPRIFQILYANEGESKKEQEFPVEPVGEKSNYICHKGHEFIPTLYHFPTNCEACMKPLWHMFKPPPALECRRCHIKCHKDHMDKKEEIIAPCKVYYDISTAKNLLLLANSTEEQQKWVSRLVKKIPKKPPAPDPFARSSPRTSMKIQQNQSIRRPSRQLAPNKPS

[43] = target: Serine/threonine-protein kinase 16 (Homo sapiens) (UniProt O75716); assay: Inhibition of STK16 at 10 uM
[44] = target: Serine/threonine-protein kinase 3 (Homo sapiens) (UniProt Q13188); assay: Inhibition of STK3 at 10 uM
[45] = target: Tyrosine-protein kinase SYK (Homo sapiens) (UniProt P43405); assay: Inhibition of SYK at 10 uM
[46] = target: Dual specificity protein kinase TTK (Homo sapiens) (UniProt P33981); assay: Inhibition of TTK at 10 uM
[47] = target: T1, Mitogen-activated protein kinase 10; conditions: 10 uM
Description: Inhibition of MAPK10 at 10 uM

T1 sequence (P53779 whole entry): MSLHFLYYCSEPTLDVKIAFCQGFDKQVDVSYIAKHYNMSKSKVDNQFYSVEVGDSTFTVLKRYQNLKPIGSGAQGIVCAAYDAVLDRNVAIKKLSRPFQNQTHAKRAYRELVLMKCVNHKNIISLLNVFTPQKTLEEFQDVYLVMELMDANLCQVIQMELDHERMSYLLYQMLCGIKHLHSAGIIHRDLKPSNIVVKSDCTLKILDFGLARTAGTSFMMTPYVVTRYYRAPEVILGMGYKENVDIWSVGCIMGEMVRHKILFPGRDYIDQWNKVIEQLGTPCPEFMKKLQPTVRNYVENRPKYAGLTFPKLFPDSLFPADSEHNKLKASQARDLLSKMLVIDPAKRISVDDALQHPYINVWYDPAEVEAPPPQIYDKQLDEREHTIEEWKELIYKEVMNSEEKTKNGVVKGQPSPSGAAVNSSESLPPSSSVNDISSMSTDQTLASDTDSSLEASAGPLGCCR

`O=C(Cc1cccc2cnccc12)Nc1scc(Cl)c1-c1ncn[nH]1` gave an IC50 [1] of 11 nM, an IC50 [2] of 43 nM and an IC50 [3] of 14 nM. For the same molecule, the IC50 [4] was > 50000 nM, the IC50 [5] was > 50000 nM and the Papp A→B (MDR1 [6]) was 27 ×10⁻⁶ cm/s. It also gave an efflux ratio (MDR1 [7]) of 1.6, a remaining at 2 h, 5 µM [8] of 29% and a remaining at 2 h, 5 µM [9] of 50%. The inhibition in vivo at 300 mg/kg (Mus musculus) was 51%, the inhibition [10] was 19% and the inhibition [11] was 19%. It also gave an inhibition [12] of 14%, an inhibition [13] of 6% and an inhibition [14] of 31%. It also gave an inhibition [15] of 4%, an inhibition [16] of 2% and an inhibition [17] of 5%. The inhibition [18] was 7%, the inhibition [19] was 5% and the inhibition [20] was 29%. It also gave an inhibition [21] of -1%, an inhibition [22] of 12% and an inhibition [23] of 25%. It also gave an inhibition [24] of -2%, an inhibition [25] of 1% and an inhibition [26] of 11%. It also gave an inhibition [27] of 15%, an inhibition [28] of 3% and an inhibition [29] of 9%. The inhibition [30] was 1%, the inhibition [31] was 2% and the inhibition [32] was 13%. The inhibition [33] was 5%, the inhibition [34] was 1% and the inhibition [35] was -1%. For the same molecule, the inhibition [36] was 3%, the inhibition [37] was 3% and the inhibition [38] was -5%. For the same molecule, the inhibition [39] was 19%, the inhibition [40] was 16% and the inhibition [41] was 13%. It also gave an inhibition [42] of 9%, an inhibition [43] of 29% and an inhibition [44] of 3%. The inhibition [45] was 19%, the inhibition [46] was > 50% and the inhibition [47] was 96%.
